Here are results for three compounds from patent EP0176049A2, “Aminoalkylnaphtalene derivatives having pharmacological activities” (priority 1984, dated 1986).

Data set [1] concerns the target enzymes responsible for the enkephalins hydrolysis. In words: inhibition of the enzymes responsible for the enkephalins hydrolysis. It is filed as biochemical.
For data set [2], the system named is mouse. Briefly: acute toxicity in the mouse. Type of data set: in vivo. Particulars: i.p. administration.
For data set [3], the system named is mouse. In words: hot plate test (analgesic activity). It is filed as in vivo. A general note: Hot-plate and tail-flick tests time the reaction to a heat stimulus.
Data set [4] in a line: acute toxicity in the mouse. As to conditions: in vivo, ip, i.p. administration. Type of data set: in vivo.
A further data set concerns rat. Briefly: paw oedema by carrageenin according to Randall-Selitto (antiinflammatory activity). It is filed as in vivo. As to conditions: ip.

Consider “2-(3-dimethylamino-l-t-butyl-l-hydroxypropyl)-6-methoxy- naphtalene [Example 3]”, for which, in data set [1], 5 mM corresponded to half-maximal inhibition (IC50). Further, the median lethal dose (LD50) in the data set on mouse [2] is recorded as 120,96 ± 5,32. mg/kg i.p.
The compound `CCC(O)(c1ccc2cc(OC)ccc2c1)C(C)CN(C)C` (stereo not drawn) [Example 1] came in with a median effective dose (ED50) in the data set on mouse [3] (Mus musculus, route and species not restated for this value) of 13.5 mg/kg. Moreover, the “kind of activity in the hot plate test (reversibility by naloxone)” value in the data set on mouse [3] (naloxone antagonism) is “partially reversible by naloxone”. In addition, in data set [1], it took 4 mM to reach half-maximal inhibition (IC50). The compound also yielded an LD50 in data set [4] of 65.8 mg/kg.
On to `CCC(O)(c1ccc2cc(O)ccc2c1)C(C)CN(C)C` (stereo not drawn) [Example 2], for which the 50% effective dose (ED50) in the data set on mouse [3] (ip, mouse, analgesic activity) was found to be 5.6 ± 1.51 mg/kg; in the data set on rat, 1.25 mg/kg. Also, in data set [4], the 50% lethal dose (LD50) is 56.2 mg/kg.

As usually defined, the IC50 is the concentration that gives 50% inhibition. Broadly, the LD50 is the dose at which mortality reaches 50%. Low readings indicate greater toxicity, high ones lower toxicity. For orientation: ED50 means the midpoint of the dose-response relation. Higher therefore signals a need for a large dose.
